The values that follow are results of earlier work, collected in US20110305747A1, “COMBINATION OF DAPSONE WITH OTHER ANTI-ACNE AGENTS” (ALLERGAN, INC., priority 2009, published 2011).

≈ marks a conversion by molar mass, not a printed value.

In data set [1] the test system is P. acnes.
Data set [2] deals with CRABPII (cellular retinol-binding protein II).
In data set [3] the test system is spontaneous comedones. The note with it: Rhino mouse containing a high density of spontaneous comedones (Allec et al, 1997).

With `Nc1ccc(S(=O)(=O)c2ccc(N)cc2)cc1` [dapsone], the “MIC90 against P. acnes” value in data set [1] is 8 µg/mL (≈ 32.2 µM).
As to `COc1ccc(-c2ccc3cc(C(=O)O)ccc3c2)cc1C12CC3CC(CC(C3)C1)C2` [adapalene], the “Binding to CRABPII” value in data set [2] was “does not bind”. For the same compound, the Comedolytic activity entry in data set [3] is “comedolytic activity”. Besides, where the note is “0.3% adapalene gel on face, chest and back, approx. 2 mg/cm2, Day 10 of treatment, 15 of 16 patients quantifiable (LOQ=0.1 ng/mL)”, the “mean Cmax of adapalene” value is 0.553 ± 0.466 ng/mL. Further, the “Mean AUC0-24hr” value (0.3% adapalene gel, approx. 2 mg/cm2, Day 10, 15 of the 16 patients) is 8.37 ± 8.46 ng·h/mL. Moreover, the “Terminal apparent half-life, mean” value (0.3% adapalene gel, 15 of 16 patients) was 17.2 ± 10.2 h. Moreover, the “Detection in plasma 72 hours after the last application” value (0.3% adapalene gel, all but one subject) is given as “not detected”.
